Measurements taken from patent publication US9776995B2, “Bicyclic sulfonamide compounds as sodium channel inhibitors” (AMGEN INC., priority 2013, dated 2017).
Read-outs that look alike come from different tables or passages of the source. Each block holds one compound with its values, some of them ahead of it.

Legend:
Nav 1.5 = Nav 1.5 (Homo sapiens (Human), UniProt Q14524); experiment: in-vitro Nav 1.5 PX data; settings: read-out: Nav 1.5 PX IC50
Nav 1.7 = Nav 1.7 (Homo sapiens (Human), UniProt Q15858); experiment: in-vitro Nav 1.7 PX data; type: cell-based
Sequence of Nav 1.7 (Q15858 whole entry): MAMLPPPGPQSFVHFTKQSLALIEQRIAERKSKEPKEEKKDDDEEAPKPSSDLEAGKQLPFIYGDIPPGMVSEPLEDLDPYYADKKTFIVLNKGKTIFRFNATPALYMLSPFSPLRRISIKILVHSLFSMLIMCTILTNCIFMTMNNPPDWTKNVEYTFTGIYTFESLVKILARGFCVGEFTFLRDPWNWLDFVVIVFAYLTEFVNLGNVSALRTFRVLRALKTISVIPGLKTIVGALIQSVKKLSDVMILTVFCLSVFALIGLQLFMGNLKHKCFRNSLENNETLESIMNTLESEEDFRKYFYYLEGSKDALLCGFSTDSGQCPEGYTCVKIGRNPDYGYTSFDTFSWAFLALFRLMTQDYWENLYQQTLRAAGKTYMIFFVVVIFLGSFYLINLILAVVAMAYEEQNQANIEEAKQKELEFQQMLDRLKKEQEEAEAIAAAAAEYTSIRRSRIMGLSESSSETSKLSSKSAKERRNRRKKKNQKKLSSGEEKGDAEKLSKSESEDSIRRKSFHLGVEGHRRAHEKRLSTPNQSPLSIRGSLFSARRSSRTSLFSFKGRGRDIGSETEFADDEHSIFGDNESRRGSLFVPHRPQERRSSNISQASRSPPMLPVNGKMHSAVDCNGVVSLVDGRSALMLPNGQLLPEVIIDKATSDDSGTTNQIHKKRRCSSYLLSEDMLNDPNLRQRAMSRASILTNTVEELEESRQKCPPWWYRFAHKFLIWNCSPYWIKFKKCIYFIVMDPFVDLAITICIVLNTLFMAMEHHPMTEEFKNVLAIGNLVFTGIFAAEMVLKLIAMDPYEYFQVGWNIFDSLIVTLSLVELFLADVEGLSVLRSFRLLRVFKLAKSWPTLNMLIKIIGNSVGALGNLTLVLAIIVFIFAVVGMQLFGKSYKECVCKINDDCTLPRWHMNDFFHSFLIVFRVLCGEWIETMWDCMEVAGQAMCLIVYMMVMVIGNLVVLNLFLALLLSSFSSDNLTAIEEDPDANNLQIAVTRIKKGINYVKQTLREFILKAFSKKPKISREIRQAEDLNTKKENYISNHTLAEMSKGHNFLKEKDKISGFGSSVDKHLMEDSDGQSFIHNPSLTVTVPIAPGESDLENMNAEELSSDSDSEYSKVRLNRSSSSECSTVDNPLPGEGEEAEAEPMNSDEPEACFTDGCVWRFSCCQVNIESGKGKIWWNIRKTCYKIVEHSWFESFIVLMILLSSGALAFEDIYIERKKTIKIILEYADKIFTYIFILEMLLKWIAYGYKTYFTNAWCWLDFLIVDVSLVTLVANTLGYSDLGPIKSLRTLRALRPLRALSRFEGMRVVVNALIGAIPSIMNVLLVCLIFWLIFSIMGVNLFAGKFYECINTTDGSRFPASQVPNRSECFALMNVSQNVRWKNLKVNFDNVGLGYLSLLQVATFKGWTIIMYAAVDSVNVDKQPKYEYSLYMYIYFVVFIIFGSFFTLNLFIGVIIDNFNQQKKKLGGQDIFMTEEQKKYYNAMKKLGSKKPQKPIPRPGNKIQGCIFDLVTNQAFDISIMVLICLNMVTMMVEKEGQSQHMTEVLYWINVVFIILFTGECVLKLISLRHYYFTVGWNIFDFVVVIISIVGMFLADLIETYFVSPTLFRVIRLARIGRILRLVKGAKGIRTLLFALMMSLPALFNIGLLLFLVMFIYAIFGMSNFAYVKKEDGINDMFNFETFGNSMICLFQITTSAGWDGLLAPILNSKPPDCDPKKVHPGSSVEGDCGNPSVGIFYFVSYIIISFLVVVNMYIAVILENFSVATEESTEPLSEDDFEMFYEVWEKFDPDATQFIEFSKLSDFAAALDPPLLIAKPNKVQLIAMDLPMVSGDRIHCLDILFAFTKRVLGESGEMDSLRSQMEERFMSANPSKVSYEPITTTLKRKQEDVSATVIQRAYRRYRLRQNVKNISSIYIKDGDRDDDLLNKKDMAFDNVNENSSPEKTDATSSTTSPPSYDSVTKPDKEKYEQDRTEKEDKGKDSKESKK

Sequence of Nav 1.5 (Q14524 whole entry): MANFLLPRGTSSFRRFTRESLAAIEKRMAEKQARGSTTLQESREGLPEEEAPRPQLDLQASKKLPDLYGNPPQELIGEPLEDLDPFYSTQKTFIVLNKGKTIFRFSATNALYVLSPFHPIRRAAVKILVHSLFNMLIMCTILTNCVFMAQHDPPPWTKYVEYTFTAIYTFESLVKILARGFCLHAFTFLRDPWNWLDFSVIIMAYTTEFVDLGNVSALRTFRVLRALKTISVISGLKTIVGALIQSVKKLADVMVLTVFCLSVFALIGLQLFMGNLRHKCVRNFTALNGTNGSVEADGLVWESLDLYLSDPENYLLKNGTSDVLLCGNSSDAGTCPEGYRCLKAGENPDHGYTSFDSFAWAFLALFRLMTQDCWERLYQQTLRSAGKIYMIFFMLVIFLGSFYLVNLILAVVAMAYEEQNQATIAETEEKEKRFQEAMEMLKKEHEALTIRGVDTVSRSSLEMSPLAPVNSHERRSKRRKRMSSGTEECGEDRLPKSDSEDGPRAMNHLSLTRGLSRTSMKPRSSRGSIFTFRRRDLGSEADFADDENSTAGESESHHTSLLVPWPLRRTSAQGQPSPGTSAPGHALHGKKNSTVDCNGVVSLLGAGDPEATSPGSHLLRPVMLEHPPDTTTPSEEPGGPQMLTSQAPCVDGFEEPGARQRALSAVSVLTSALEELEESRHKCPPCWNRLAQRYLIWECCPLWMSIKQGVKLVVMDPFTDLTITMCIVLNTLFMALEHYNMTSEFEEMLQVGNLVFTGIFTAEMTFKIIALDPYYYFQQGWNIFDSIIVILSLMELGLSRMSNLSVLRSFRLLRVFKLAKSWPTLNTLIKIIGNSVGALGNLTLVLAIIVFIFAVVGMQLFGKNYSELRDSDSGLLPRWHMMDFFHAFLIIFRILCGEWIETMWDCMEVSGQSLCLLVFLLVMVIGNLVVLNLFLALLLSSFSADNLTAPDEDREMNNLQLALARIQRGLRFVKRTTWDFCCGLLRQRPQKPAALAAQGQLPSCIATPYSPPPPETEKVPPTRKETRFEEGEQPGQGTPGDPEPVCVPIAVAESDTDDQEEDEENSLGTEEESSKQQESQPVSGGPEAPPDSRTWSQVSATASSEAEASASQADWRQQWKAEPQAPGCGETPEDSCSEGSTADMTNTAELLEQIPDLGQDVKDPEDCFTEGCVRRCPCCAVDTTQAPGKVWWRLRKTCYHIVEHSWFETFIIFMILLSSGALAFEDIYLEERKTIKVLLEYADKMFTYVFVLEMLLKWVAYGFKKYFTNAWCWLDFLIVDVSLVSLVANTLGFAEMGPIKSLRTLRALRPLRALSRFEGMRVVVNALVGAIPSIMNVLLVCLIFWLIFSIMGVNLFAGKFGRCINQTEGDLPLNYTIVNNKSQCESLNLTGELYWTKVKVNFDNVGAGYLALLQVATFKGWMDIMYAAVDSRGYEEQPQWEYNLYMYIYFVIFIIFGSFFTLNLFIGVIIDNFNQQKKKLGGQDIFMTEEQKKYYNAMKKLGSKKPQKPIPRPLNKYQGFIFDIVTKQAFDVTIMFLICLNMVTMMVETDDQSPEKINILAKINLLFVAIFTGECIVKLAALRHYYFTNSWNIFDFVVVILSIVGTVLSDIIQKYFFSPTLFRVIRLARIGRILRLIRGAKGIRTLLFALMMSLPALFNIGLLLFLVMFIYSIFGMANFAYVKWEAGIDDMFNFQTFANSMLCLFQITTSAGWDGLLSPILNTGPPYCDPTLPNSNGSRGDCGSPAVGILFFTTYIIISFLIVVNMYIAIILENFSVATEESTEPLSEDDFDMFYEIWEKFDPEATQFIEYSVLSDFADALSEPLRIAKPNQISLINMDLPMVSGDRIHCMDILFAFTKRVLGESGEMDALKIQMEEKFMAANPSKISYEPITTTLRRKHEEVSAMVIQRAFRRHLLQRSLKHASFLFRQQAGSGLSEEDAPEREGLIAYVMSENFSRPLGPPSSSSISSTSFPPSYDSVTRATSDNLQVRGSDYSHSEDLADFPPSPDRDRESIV

Compound: COc1cc(-c2ccc(C)c(F)c2)c(C#N)cc1-c1nccc2cc(S(=O)(=O)Nc3ccncn3)ccc12 [Example 163, 1-(2-cyano-3′-fluoro-5-methoxy-4′-methyl-4-biphenylyl)-N-4-pyrimidinyl-6-isoquinolinesulfonamide]
IC50 (Nav 1.5; in-vitro Nav 1.5 PX data): > 10000 nM
IC50 (Nav 1.7; in-vitro Nav 1.7 PX data): 92.1 nM

Compound: COc1cc(-c2ccc(Cl)c(C)c2)c(C#N)cc1-c1nccc2cc(S(=O)(=O)Nc3ccncn3)ccc12 [Example 161, 1-(4′-chloro-2-cyano-5-methoxy-3′-methyl-4-biphenylyl)-N-4-pyrimidinyl-6-isoquinolinesulfonamide]
IC50 (Nav 1.5; in-vitro Nav 1.5 PX data): > 30000 nM
IC50 (Nav 1.7; in-vitro Nav 1.7 PX data): 17.4 nM

Compound: COc1cc(-c2cccc(F)c2)c(Cl)cc1-c1ncnc2cc(S(=O)(=O)Nc3ncon3)ccc12 [Example 26, 4-(2-CHLORO-3′-FLUORO-5-METHOXY-[1,1′-BIPHENYL]-4-YL)-N-(1,2,4-OXADIAZOL-3-YL)QUINAZOLINE-7-SULFONAMIDE]
IC50 (Nav 1.5; in-vitro PX): > 10000 nM
IC50 (Nav 1.7; in-vitro PX): 85 nM

Compound: COc1cc(-c2ccc(Cl)c(F)c2)c(C#N)cc1-c1nccc2cc(S(=O)(=O)Nc3ccncn3)ccc12 [Example 154, 1-(4′-chloro-2-cyano-3′-fluoro-5-methoxy-4-biphenylyl)-N-4-pyrimidinyl-6-isoquinolinesulfonamide]
IC50 (Nav 1.5; in-vitro Nav 1.5 PX data): > 30000 nM
IC50 (Nav 1.7; in-vitro Nav 1.7 PX data): 43.5 nM

Compound: COc1cc(-c2cc(F)cnc2OC)ccc1-c1nccc2cc(S(=O)(=O)Nc3ccon3)ccc12 [Example 31, 1-(4-(5-FLUORO-2-METHOXYPYRIDIN-3-YL)-2-METHOXYPHENYL)-N-(ISOXAZOL-3-YL)ISOQUINOLINE-6-SULFONAMIDE]
IC50 (Nav 1.5; in-vitro PX (PatchXpress) data): > 10000 nM
IC50 (Nav 1.7; in-vitro PX (PatchXpress) data): 169 nM

Compound: Cc1ccc(OCc2ccccc2)cc1-c1nccc2cc(S(=O)(=O)Nc3ccncn3)ccc12 [Example 151, 1-(5-(benzyloxy)-2-methylphenyl)-N-4-pyrimidinyl-6-isoquinolinesulfonamide]
IC50 (Nav 1.5; in-vitro Nav 1.5 PX data): > 30000 nM
IC50 (Nav 1.7; in-vitro Nav 1.7 PX data): 424 nM

Compound: COc1cc(-c2cccc(C(F)(F)F)c2)c(F)cc1-c1nn(C)c(=O)c2cc(S(=O)(=O)Nc3ccon3)ccc12 [Example 25, 1-(2-FLUORO-5-METHOXY-3′-(TRIFLUOROMETHYL)-[1,1′-BIPHENYL]-4-YL)-N-(ISOXAZOL-3-YL)-3-METHYL-4-OXO-3,4-DIHYDROPHTHALAZINE-6-SULFONAMIDE]
IC50 (Nav 1.5; in-vitro PX): > 10000 nM
IC50 (Nav 1.7): 94.1 nM

Compound: COc1cc(-c2cccc(F)c2)c(Cl)cc1-c1nccc2cc(S(=O)(=O)Nc3cccnn3)ccc12 [Example 120, 1-(2-chloro-3′-fluoro-5-methoxy-4-biphenylyl)-N-3-pyridazinyl-6-isoquinolinesulfonamide]
IC50 (Nav 1.5; in-vitro PX data): > 10000 nM
IC50 (Nav 1.7; in-vitro PX data): 141 nM

Compound: 1-(5-cyano-4-(5-fluoro-2-methoxy-3-pyridinyl)-2-methoxyphenyl)-N-1,3,4-thiadiazol-2-yl-6-isoquinolinesulfonamide [Example 223]
IC50 (Nav 1.5; in-vitro PX): > 10000 nM
IC50 (Nav 1.7; in-vitro PX): 72.3 nM

Compound: COc1cc(-c2cccc(C(F)(F)F)c2)c(F)cc1-c1nccc2cc(S(=O)(=O)Nc3ccon3)ccc12 [Example 115, 1-(2-fluoro-5-methoxy-3′-(trifluoromethyl)-4-biphenylyl)-N-3-isoxazolyl-6-isoquinolinesulfonamide]
IC50 (Nav 1.5; in-vitro PX data): > 10000 nM
IC50 (Nav 1.7; in-vitro PX data): 13.5 nM

Compound: COc1cc(-c2cccc(F)c2)c(Cl)cc1-c1nncc2cc(S(=O)(=O)Nc3ncccn3)ccc12 [Example 113, 1-(2-chloro-3′-fluoro-5-methoxy-4-biphenylyl)-N-2-pyrimidinyl-6-phthalazinesulfonamide]
IC50 (Nav 1.5; in-vitro PX data): > 10000 nM
IC50 (Nav 1.7; in-vitro PX data): 95 nM

Compound: COc1cc(-c2cc(F)cc(Cl)c2)c(C#N)cc1-c1nccc2cc(S(=O)(=O)Nc3ccon3)ccc12 [Example 86, 1-(3′-chloro-2-cyano-5′-fluoro-5-methoxy-4-biphenylyl)-N-3-isoxazolyl-6-isoquinolinesulfonamide]
IC50 (Nav 1.5; PatchXpress (PX), in vitro): > 10000 nM
IC50 (Nav 1.7; PatchXpress (PX), in vitro): 24.4 nM

Compound: COc1cc(-c2cc(F)cc(F)c2)c(C#N)cc1-c1nccc2cc(S(=O)(=O)Nc3ccncn3)ccc12 [Example 28, 1-(2-CYANO-3′,5′-DIFLUORO-5-METHOXY-[1,1′-BIPHENYL]-4-YL)-N-(PYRIMIDIN-4-YL)ISOQUINOLINE-6-SULFONAMIDE]
IC50 (Nav 1.5; in-vitro Nav 1.5 PX data): > 10000 nM
IC50 (Nav 1.7): 144 nM

Compound: COc1cc(-c2cccc(F)c2)ccc1-c1nccc2cc(S(=O)(=O)Nc3ncns3)c(F)cc12 [Example 44, 7-FLUORO-1-(3′-FLUORO-3-METHOXY-[1,1′-BIPHENYL]-4-YL)-N-(1,2,4-THIADIAZOL-5-YL)ISOQUINOLINE-6-SULFONAMIDE]
IC50 (Nav 1.5; PatchXpress (PX), in vitro): > 10000 nM
IC50 (Nav 1.7): 48.8 nM

Compound: COc1cc(-c2cccc(C(F)(F)F)c2)ccc1-c1nccc2cc(S(=O)(=O)Nc3ccon3)ccc12 [Example 6, N-(ISOXAZOL-3-YL)-1-(3-METHOXY-3′-(TRIFLUOROMETHYL)-[1,1′-BIPHENYL]-4-YL)ISOQUINOLINE-6-SULFONAMIDE]
IC50 (Nav 1.5; in-vitro PX data): > 10000 nM
IC50 (Nav 1.7): 78.9 nM

Compound: COc1nc(NC2CCCCC2)ccc1-c1nccc2cc(S(=O)(=O)Nc3ccncn3)ccc12 [Example 73, 1-(6-(cyclohexylamino)-2-methoxy-3-pyridinyl)-N-4-pyrimidinyl-6-isoquinolinesulfonamide]
IC50 (Nav 1.5; PatchXpress (PX), in vitro): > 10000 nM
IC50 (Nav 1.7; PatchXpress (PX), in vitro): 436 nM

Compound: COc1cc(-c2cc(F)cc(F)c2)ccc1-c1nccc2cc(S(=O)(=O)Nc3nc(C)ns3)ccc12 [Example 130, 1-(3′,5′-difluoro-3-methoxy-4-biphenylyl)-N-(3-methyl-1,2,4-thiadiazol-5-yl)-6-isoquinolinesulfonamide]
IC50 (Nav 1.5; in-vitro PX data): > 30000 nM
IC50 (Nav 1.7; in-vitro PX data): 1040 nM

Compound: COc1cc(-c2cc(F)cc(F)c2)c(C)cc1-c1nccc2cc(S(=O)(=O)Nc3nncs3)ccc12 [Example 172, 1-(3′,5′-difluoro-5-methoxy-2-methyl-4-biphenylyl)-N-1,3,4-thiadiazol-2-yl-]
IC50 (Nav 1.5; in-vitro Nav 1.5 PX data): > 10000 nM
IC50 (Nav 1.7; in-vitro Nav 1.7 PX data): 34.9 nM

Compound: O=S(=O)(Nc1ccon1)c1ccc2c(-c3ccc(-c4cccc(C(F)(F)F)c4)cc3CO)nccc2c1 [Example 146, 1-(3-(hydroxymethyl)-3′-(trifluoromethyl)-4-biphenylyl)-N-3-isoxazolyl-6-isoquinolinesulfonamide]
IC50 (Nav 1.5; in-vitro Nav 1.5 PX data): > 10000 nM
IC50 (Nav 1.7; in-vitro Nav 1.7 PX data): 120 nM

Compound: COc1cc(-c2cccc(C)c2)c(C#N)cc1-c1nccc2cc(S(=O)(=O)Nc3ccncn3)ccc12 [Example 156, 1-(2-cyano-5-methoxy-3′-methyl-4-biphenylyl)-N-4-pyrimidinyl-6-isoquinolinesulfonamide]
IC50 (Nav 1.5; in-vitro Nav 1.5 PX data): 30800 nM
IC50 (Nav 1.7; in-vitro Nav 1.7 PX data): 47.3 nM

Compound: COc1cc(-c2cc(F)cc(F)c2)ccc1-c1nccc2cc(S(=O)(=O)Nc3ncco3)ccc12 [Example 137, 1-(3′,5′-difluoro-3-methoxy-4-biphenylyl)-N-1,3-oxazol-2-yl-6-isoquinolinesulfonamide]
IC50 (Nav 1.5; in-vitro PX data): > 10000 nM
IC50 (Nav 1.7; in-vitro PX data): 360 nM

Compound: COc1cc(-c2cccc(F)c2)c(Cl)cc1-c1ncc(C#N)c2cc(S(=O)(=O)Nc3ccon3)ccc12 [Example 27, 1-(2-CHLORO-3′-FLUORO-5-METHOXY-[1,1′-BIPHENYL]-4-YL)-4-CYANO-N-(ISOXAZOL-3-YL)ISOQUINOLINE-6-SULFONAMIDE]
IC50 (Nav 1.5; in-vitro PX): > 10000 nM
IC50 (Nav 1.7): 282 nM

Second part, led by results:

IC50 (Nav 1.7; in-vitro PX (PatchXpress) data): 126 nM
Compound: COc1cc(Oc2cccc(C)c2)ccc1-c1nccc2cc(S(=O)(=O)Nc3ccncn3)ccc12 [Example 181, 1-(2-methoxy-4-(3-methylphenoxy)phenyl)-N-4-pyrimidinyl-6-isoquinolinesulfonamide]
IC50 (Nav 1.5; in-vitro PX (PatchXpress) data): > 10000 nM

IC50 (Nav 1.7; in-vitro PX (PatchXpress) data): 394 nM
Compound: COc1cc(-c2ccc(-c3nccc4cc(S(=O)(=O)Nc5nncs5)ccc34)c(OC)c2)c(F)cn1 [Example 189, 1-(4-(5-fluoro-2-methoxy-4-pyridinyl)-2-methoxyphenyl)-N-1,3,4-thiadiazol-2-yl-6-isoquinolinesulfonamide]
IC50 (Nav 1.5; in-vitro PX (PatchXpress) data): > 30000 nM

IC50 (Nav 1.7; in-vitro PX): 328 nM
Compound: COc1cc(-c2cc(F)cnc2OC)ccc1-c1ccnc2cc(S(=O)(=O)Nc3nncs3)ccc12 [Example 209, 4-(4-(5-fluoro-2-methoxy-3-pyridinyl)-2-methoxyphenyl)-N-1,3,4-thiadiazol-2-yl-7-quinolinesulfonamide]
IC50 (Nav 1.5; in-vitro PX): > 10000 nM

IC50 (Nav 1.7; in-vitro PX): 11.6 nM
Compound: COc1cc(-c2cccc(C(F)(F)F)c2)c(C#N)cc1-c1ncnc2cc(S(=O)(=O)Nc3nncs3)ccc12 [Example 226, 4-(2-cyano-5-methoxy-3′-(trifluoromethyl)-4-biphenylyl)-N-1,3,4-thiadiazol-2-yl-7-quinazolinesulfonamide]
IC50 (Nav 1.5; in-vitro PX): > 10000 nM

IC50 (Nav 1.7; in-vitro PX): 144 nM
Compound: N#CCOc1cc(-c2cccc(F)c2)ccc1-c1nccc2cc(S(=O)(=O)Nc3nncs3)ccc12 [Example 238, 1-(3-(cyanomethoxy)-3′-fluoro-4-biphenylyl)-N-1,3,4-thiadiazol-2-yl-6-isoquinolinesulfonamide]
IC50 (Nav 1.5; in-vitro PX): > 10000 nM

IC50 (Nav 1.7; in-vitro PX (PatchXpress) data): 76 nM
Compound: COc1cc(-c2ccc(F)c(F)c2)c(C#N)cc1-c1nccc2cc(S(=O)(=O)Nc3ccncn3)ccc12 [Example 197, 1-(2-cyano-3′,4′-difluoro-5-methoxy-4-biphenylyl)-N-4-pyrimidinyl-6-isoquinolinesulfonamide]
IC50 (Nav 1.5; in-vitro PX (PatchXpress) data): > 10000 nM

IC50 (Nav 1.7; in-vitro PX): 22.3 nM
Compound: COc1cc(-c2cccc(C)c2)c(C#N)cc1-c1nccc2cc(S(=O)(=O)Nc3nncs3)ccc12 [Example 217, 1-(2-cyano-5-methoxy-3′-methyl-4-biphenylyl)-N-1,3,4-thiadiazol-2-yl-6-isoquinolinesulfonamide]
IC50 (Nav 1.5; in-vitro PX): > 10000 nM

IC50 (Nav 1.7; in-vitro PX (PatchXpress) data): 215 nM
Compound: COc1cc(-c2cc(C)cnc2OC)ccc1-c1nccc2cc(S(=O)(=O)Nc3nncs3)ccc12 [Example 188, 1-(2-methoxy-4-(2-methoxy-5-methyl-3-pyridinyl)phenyl)-N-1,3,4-thiadiazol-2-yl-6-isoquinolinesulfonamide]
IC50 (Nav 1.5; in-vitro PX (PatchXpress) data): > 30000 nM

IC50 (Nav 1.7; in-vitro PX): 140 nM
Compound: N#CCOc1cc(-c2cccc(F)c2)ccc1-c1nccc2cc(S(=O)(=O)Nc3ccon3)ccc12 [Example 231, 1-(3-(cyanomethoxy)-3′-fluoro-4-biphenylyl)-N-3-isoxazolyl-6-isoquinolinesulfonamide]
IC50 (Nav 1.5; in-vitro PX): > 30000 nM
